What was measured:
[1] = molecular target: T1, AurA (Homo sapiens, UniProt O14965); assay: Probe-based (AX9989) kinase profiling in Jurkat lysate: AurA; assay type: binding; details: screening concentration 1.0 μM; read-out: Kinase inhibition % at indicated screening concentration: AurA
T1 construct: screened for activity against several kinases in Jurkat cells; endogenous in cells; host or cells: Jurkat cell lysate
T1 sequence (O14965 1-403): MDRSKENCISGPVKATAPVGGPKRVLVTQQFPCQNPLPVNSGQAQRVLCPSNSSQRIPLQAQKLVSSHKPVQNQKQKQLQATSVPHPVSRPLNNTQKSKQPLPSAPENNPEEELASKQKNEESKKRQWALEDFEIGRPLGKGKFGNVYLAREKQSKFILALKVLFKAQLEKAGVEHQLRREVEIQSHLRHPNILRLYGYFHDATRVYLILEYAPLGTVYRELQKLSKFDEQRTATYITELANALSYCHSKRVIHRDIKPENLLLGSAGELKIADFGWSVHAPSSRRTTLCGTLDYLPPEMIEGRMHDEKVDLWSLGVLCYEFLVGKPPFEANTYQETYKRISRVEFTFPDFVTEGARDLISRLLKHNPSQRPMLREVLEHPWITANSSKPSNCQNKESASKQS
Method in brief: (§1)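 Compounds were pre-incubated for 15 min at room temperature with gel-filtered Jurkat cell lysate supplemented with 20 mM MnCl2, after which the acyl phosphate ATP probe AX9989 was added at 5 μM final. Labeled active-site peptides were enriched after tryptic digestion and measured by LC/MS, with percent inhibition taken relative to samples without compound.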

[2] = molecular target: T2, TAO2 (Homo sapiens, UniProt Q9UL54); assay: Probe-based (AX9989) kinase profiling in Jurkat lysate: TAO2; assay type: binding; details: screening concentration 1.0 μM; read-out: Kinase inhibition % at indicated screening concentration: TAO2
T2 construct: screened for activity against several kinases in Jurkat cells; endogenous in cells; host or cells: Jurkat cell lysate
T2 sequence (Q9UL54 1-1235): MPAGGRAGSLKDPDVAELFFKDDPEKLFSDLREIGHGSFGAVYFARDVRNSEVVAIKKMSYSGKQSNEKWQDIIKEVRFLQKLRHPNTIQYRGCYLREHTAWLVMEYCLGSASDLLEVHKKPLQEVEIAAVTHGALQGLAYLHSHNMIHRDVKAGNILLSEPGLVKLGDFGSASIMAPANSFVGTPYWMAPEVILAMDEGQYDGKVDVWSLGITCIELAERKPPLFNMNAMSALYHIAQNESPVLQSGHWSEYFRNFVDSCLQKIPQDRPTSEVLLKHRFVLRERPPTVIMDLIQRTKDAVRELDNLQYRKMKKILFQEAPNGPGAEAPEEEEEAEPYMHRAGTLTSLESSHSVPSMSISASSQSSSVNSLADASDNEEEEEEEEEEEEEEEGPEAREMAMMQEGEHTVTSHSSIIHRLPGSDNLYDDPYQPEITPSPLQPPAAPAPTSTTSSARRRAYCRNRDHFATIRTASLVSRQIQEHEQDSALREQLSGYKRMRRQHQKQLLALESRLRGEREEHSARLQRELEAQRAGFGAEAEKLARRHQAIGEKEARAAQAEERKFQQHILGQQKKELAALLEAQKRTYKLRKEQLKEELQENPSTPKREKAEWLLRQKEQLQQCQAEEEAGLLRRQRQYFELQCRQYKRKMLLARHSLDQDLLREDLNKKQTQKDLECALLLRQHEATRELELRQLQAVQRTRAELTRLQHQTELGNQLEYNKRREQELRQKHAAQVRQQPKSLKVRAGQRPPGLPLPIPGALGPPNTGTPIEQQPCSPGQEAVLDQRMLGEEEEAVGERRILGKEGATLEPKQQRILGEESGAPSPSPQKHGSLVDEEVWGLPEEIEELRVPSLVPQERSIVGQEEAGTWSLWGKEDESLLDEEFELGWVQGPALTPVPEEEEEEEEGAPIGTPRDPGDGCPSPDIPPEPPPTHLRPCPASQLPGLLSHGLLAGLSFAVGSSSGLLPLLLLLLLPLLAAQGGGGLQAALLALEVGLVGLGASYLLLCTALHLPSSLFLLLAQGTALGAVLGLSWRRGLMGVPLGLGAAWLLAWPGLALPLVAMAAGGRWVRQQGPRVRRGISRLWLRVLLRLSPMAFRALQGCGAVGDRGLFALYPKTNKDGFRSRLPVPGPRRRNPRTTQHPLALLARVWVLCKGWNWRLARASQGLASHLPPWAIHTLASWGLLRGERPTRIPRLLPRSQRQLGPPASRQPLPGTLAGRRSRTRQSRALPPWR
Method in brief: as §1

[3] = tested on: AMPKa1 or AMPKa2; assay: Probe-based (AX9989) kinase profiling in Jurkat lysate: AMPKa1 or AMPKa2; assay type: binding; details: screening concentration 1.0 μM
Method in brief: as §1

[4] = molecular target: T3, JAK1 (Homo sapiens, UniProt P23458); assay: Probe-based (AX9989) kinase profiling in Jurkat lysate: JAK1; assay type: binding; details: screening concentration 1.0 μM; read-out: Kinase inhibition % at indicated screening concentration: JAK1
T3 construct: screened for activity against several kinases in Jurkat cells; endogenous in cells; host or cells: Jurkat cell lysate
T3 sequence (P23458 whole entry): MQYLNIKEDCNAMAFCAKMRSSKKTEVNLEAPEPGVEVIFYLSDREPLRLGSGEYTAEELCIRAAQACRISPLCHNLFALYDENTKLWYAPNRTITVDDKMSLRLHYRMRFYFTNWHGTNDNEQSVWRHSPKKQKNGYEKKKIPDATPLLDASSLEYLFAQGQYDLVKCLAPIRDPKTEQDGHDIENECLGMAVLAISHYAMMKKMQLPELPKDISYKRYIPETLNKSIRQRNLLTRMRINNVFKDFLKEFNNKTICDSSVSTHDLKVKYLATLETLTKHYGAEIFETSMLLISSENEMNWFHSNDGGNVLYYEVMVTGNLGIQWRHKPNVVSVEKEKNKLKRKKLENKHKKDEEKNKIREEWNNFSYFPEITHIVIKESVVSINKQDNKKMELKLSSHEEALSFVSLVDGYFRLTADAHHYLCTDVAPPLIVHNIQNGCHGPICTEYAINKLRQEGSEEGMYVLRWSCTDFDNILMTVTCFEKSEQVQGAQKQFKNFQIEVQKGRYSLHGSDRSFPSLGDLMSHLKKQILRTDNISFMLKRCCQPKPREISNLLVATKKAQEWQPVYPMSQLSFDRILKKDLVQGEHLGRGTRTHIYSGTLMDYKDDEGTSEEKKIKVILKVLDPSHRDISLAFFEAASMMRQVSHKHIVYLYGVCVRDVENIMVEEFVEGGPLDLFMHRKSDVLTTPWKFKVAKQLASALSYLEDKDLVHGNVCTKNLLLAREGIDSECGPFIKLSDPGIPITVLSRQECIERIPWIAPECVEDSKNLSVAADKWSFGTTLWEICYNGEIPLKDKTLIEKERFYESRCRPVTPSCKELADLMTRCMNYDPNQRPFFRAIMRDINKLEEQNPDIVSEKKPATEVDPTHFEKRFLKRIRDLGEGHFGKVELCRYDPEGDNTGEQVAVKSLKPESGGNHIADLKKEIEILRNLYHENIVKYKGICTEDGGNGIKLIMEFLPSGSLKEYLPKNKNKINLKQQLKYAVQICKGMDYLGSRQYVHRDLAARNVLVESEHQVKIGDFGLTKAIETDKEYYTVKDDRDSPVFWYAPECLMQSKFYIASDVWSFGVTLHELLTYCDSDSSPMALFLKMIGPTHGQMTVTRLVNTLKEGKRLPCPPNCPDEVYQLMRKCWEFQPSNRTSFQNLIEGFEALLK
Method in brief: as §1

[5] = molecular target: T4, ERK5 (Homo sapiens, UniProt Q13164); assay: Probe-based (AX9989 acyl phosphate ATP probe) kinase profiling in Jurkat lysate: ERK5; assay type: binding; details: for IC50: calculated from percent inhibition of AX9989 labeling and the screening concentration, Jurkat lysate; for inhibition at 1 µM: screening concentration 1.0 μM, read-out: Kinase inhibition % at indicated screening concentration: ERK5
T4 construct: screened for activity against several kinases in Jurkat cells; endogenous in cells; host or cells: Jurkat cell lysate
T4 sequence (Q13164 whole entry): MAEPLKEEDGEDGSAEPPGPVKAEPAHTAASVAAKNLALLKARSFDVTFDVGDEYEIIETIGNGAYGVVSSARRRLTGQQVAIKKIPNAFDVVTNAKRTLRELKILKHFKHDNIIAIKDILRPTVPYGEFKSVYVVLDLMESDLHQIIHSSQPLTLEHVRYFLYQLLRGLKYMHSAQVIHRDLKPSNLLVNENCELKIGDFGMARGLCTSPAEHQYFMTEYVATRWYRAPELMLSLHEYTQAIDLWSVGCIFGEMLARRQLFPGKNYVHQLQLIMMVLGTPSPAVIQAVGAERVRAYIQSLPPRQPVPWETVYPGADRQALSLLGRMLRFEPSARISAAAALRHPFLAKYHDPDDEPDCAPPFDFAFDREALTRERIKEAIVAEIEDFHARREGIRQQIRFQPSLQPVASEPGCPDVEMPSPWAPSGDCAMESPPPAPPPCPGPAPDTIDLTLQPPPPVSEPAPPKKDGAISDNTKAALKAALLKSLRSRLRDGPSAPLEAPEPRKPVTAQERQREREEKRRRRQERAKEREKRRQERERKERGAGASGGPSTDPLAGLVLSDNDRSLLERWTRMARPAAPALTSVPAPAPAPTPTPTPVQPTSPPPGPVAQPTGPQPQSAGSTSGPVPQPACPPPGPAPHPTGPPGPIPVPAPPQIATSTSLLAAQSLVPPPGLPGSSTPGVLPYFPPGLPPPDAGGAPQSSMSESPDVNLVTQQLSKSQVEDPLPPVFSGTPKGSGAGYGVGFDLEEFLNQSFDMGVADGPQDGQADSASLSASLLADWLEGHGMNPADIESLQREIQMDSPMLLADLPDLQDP
Method in brief: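 Gel-filtered Jurkat lysate (5 mg/ml, 20 mM MnCl2) preincubated 15 min at room temperature with compound, then labelled with 5 μM AX9989 acyl phosphate ATP probe. Probe-labelled ERK5 active-site peptides quantified by LC/MS after trypsin digestion and streptavidin capture; IC50 calculated from percent inhibition at the screening concentration.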

[6] = tested on: human PBMCs; assay: Human PBMC TNF-α response to endotoxin (ELISA); assay type: cell-based; details: 0.1 μg/ml LPS 16 h, read-out: EC50 for the inhibition of the human PBMC TNF-α response to endotoxin, ave. ± S.D.
Method in brief: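 PBMCs at 2e6 cells/ml in RPMI 1640 with 10% charcoal-dextran-treated FBS were pre-treated 1 h at 37 °C with compound (4-point 1:5 dilution from 10 μM). Stimulation with 0.1 μg/ml E. coli 0111:B4 LPS for 16 h; TNF-α measured by ELISA (A450) in 25-fold diluted supernatant.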

[7] = molecular target: T5, ACK (Homo sapiens, UniProt Q07912); assay: Probe-based (AX9989) kinase profiling in Jurkat lysate: ACK; assay type: binding; details: screening concentration 1.0 μM; read-out: Kinase inhibition % at indicated screening concentration: ACK
T5 construct: screened for activity against several kinases in Jurkat cells; endogenous in cells; host or cells: Jurkat cell lysate
T5 sequence (Q07912 whole entry): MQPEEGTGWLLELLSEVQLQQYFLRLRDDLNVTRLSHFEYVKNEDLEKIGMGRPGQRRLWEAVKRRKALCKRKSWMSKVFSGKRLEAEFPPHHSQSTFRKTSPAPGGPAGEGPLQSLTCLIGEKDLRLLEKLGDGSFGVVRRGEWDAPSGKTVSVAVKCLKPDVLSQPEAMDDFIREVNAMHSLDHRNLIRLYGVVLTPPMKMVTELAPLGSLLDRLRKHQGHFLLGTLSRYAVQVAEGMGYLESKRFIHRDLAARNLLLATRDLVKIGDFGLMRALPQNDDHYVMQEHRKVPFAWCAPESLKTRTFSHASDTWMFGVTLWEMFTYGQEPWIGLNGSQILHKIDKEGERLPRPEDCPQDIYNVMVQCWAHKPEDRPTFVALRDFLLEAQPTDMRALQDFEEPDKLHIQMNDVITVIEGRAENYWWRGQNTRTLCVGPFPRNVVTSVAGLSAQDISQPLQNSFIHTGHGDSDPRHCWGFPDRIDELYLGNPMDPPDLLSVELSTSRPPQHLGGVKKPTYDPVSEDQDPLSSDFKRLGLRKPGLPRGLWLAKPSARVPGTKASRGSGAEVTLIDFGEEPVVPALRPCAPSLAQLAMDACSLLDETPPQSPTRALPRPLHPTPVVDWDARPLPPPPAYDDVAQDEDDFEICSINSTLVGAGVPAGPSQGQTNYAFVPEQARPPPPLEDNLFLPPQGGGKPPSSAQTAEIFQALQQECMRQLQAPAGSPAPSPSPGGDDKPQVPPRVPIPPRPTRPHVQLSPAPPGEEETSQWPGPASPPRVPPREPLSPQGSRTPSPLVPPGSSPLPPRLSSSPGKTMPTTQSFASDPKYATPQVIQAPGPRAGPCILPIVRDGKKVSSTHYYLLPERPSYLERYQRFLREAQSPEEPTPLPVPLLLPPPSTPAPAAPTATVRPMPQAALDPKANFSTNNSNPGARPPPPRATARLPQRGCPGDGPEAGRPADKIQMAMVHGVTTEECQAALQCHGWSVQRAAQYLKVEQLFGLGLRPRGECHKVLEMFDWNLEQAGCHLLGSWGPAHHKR
Method in brief: as §1

[8] = tested on: ABL or ARG; assay: Probe-based (AX9989) kinase profiling in Jurkat lysate: ABL or ARG; assay type: binding; details: screening concentration 1.0 μM
Method in brief: as §1

[9] = tested on: AurB or AurC; assay: Probe-based (AX9989) kinase profiling in Jurkat lysate: AurB or AurC; assay type: binding; details: screening concentration 1.0 μM
Method in brief: as §1

Row | Structure (SMILES) | inhibition at 1 µM [1] [%] | inhibition at 1 µM [2] [%] | Kinase inhibition % at indicated screening concentration: AMPKa1 or AMPKa2 [3] | inhibition at 1 µM [4] [%] | IC50 [5] [nM] | inhibition at 1 µM [5] [%] | EC50 [6] [nM] | inhibition at 1 µM [7] [%] | Kinase inhibition % at indicated screening concentration: ABL or ARG [8] | Kinase inhibition % at indicated screening concentration: AurB or AurC [9]
1 | CCOc1cc(C(=O)N2CCC(N3CCN(C)CC3)CC2)ccc1Nc1cc2c(cn1)N(C)C(=O)C1CCCCC1N2C (centres unmarked) [Compound 68] | ≤ 35 | ≤ 35 | E (E is ≦35%) | ≤ 35 | > 500 | ≤ 35 | > 10000 | ≤ 35 | E (E is ≦35%) | E (E is ≦35%)
2 | Cc1cc(CO)ccc1Nc1cc2c(cn1)N(C)C(=O)c1ccccc1N2C [Compound 85, 3-(4-(hydroxymethyl)-2-methylphenylamino)-5,11-dimethyl-5H-benzo[e]pyrido[3,4-b][1,4]diazepin-10(11H)-one] | ≤ 35 | ≤ 35 | E (E is ≦35%) | ≤ 35 | 101 to 500 | 75 to 90 | 1350 | ≤ 35 | E (E is ≦35%) | E (E is ≦35%)
3 | Cc1cc(C#N)ccc1Nc1cc2c(cn1)N(C)C(=O)c1ccccc1N2C [Compound 89] | ≤ 35 | ≤ 35 | E (E is ≦35%) | ≤ 35 | 101 to 500 | 50 to 75 | 1750 | ≤ 35 | E (E is ≦35%) | E (E is ≦35%)
4 | CCOc1cc(C)ccc1Nc1cc2c(cn1)N(C)C(=O)c1ccccc1N2C [Compound 95] | ≤ 35 | ≤ 35 | E (E is ≦35%) | ≤ 35 | > 500 | ≤ 35 | 3730 | ≤ 35 | E (E is ≦35%) | E (E is ≦35%)
5 | COc1cc(C)c(Nc2cc3c(cn2)N(C)C(=O)c2ccccc2N3C)cn1 [Compound 116] | ≤ 35 | ≤ 35 | E (E is ≦35%) | ≤ 35 | > 500 | 50 to 75 | 4370 | ≤ 35 | E (E is ≦35%) | E (E is ≦35%)
